In the supplement of paper PMC8960247:
Structures can show the parent of a compound that is named as a salt. ± gives the standard error.

Key:
621-102 (TSC2-deficient) [1] = test: relative viability vs DMSO (fraction); higher = less cytotoxic; conditions: serum: 0.1% FBS, 72 h
621-102 (TSC2-deficient) [2] = test: relative viability vs DMSO; higher = less cytotoxic; conditions: serum: 10% FBS, 72 h
621-103 (TSC2-rescued) = test: as above; conditions: serum: 10% FBS, 72 h

SMILES	relative viability (621-102 (TSC2-deficient) [1]; 0.0128 nM)	relative viability (621-102 (TSC2-deficient) [1]; 0.064 nM)	relative viability (621-102 (TSC2-deficient) [1]; 0.32 nM)	relative viability (621-102 (TSC2-deficient) [1]; 1.6 nM)	relative viability (621-102 (TSC2-deficient) [1]; 8 nM)	relative viability (621-102 (TSC2-deficient) [1]; 40 nM)	relative viability (621-102 (TSC2-deficient) [1]; 200 nM)	relative viability (621-102 (TSC2-deficient) [1]; 1000 nM)	relative viability (621-102 (TSC2-deficient) [1]; 5000 nM)	relative viability (621-102 (TSC2-deficient) [2]; 0.0001 µM)	relative viability (621-102 (TSC2-deficient) [2]; 0.001 µM)	relative viability (621-102 (TSC2-deficient) [2]; 0.01 µM)	relative viability (621-102 (TSC2-deficient) [2]; 0.1 µM)	relative viability (621-102 (TSC2-deficient) [2]; 1 µM)	relative viability (621-102 (TSC2-deficient) [2]; 10 µM)	relative viability (621-103 (TSC2-rescued); 0.0001 µM)	relative viability (621-103 (TSC2-rescued); 0.001 µM)	relative viability (621-103 (TSC2-rescued); 0.01 µM)	relative viability (621-103 (TSC2-rescued); 0.1 µM)	relative viability (621-103 (TSC2-rescued); 1 µM)	relative viability (621-103 (TSC2-rescued); 10 µM)
COc1cccc2c1C(=O)c1c(O)c3c(c(O)c1C2=O)C[C@@](O)(C(=O)CO)C[C@@H]3O[C@H]1C[C@H](N)[C@H](O)[C@H](C)O1 [Doxorubicin (adriamycin)]	0.343	0.2	0.0923	0.107	0.128	0.0761	0.0129	0.00359	0.00442												
COC1=C2C[C@@H](C)C[C@H](OC)[C@H](O)[C@@H](C)/C=C(\C)[C@H](OC(N)=O)[C@@H](OC)/C=C\C=C(/C)C(=O)NC(=CC1=O)C2=O [Geldanamycin]	0.476	0.259	0.399	0.172	0.306	0.27	0.12	0.0204	0.0125	90.7 ± 2.4%	91.7 ± 1.6%	62.3 ± 3%	39.82 ± 0.13%	28.8 ± 1.5%	8.32 ± 0.19%	98.8 ± 6.2%	77.8 ± 1.1%	33.3 ± 7.4%	10.09 ± 0.062%	3.46 ± 0.37%	3.05 ± 0.2%
CN(C)C1CCN(C(=O)c2ccc(NC(=O)Nc3ccc(-c4nc(N5CCOCC5)nc(N5CCOCC5)n4)cc3)cc2)CC1 [PKI587]	0.515	0.487	0.471	0.338	0.266	0.196	0.128	0.0333	0.0113												
Cc1ccc(C(=O)N(CCCN)[C@@H](c2oc3cc(Cl)ccc3c(=O)c2Cc2ccccc2)C(C)C)cc1										61.7 ± 2.2%	67.7 ± 4.4%	75.95 ± 0.11%	69.9 ± 1.3%	80.2 ± 2.9%	1.36 ± 0.19%	40.45 ± 0.2%	46.1 ± 0.55%	59.1 ± 2%	50.6 ± 1.8%	47.3 ± 5.6%	1.36 ± 0.14%
Cc1ccccc1-n1c(Cn2cnc3c(N)ncnc32)nc2cccc(C)c2c1=O										108.5 ± 0.61%	117.2 ± 0.36%	118 ± 4%	116.3 ± 0.6%	101.3 ± 0.42%	99.9 ± 0.73%	100.1 ± 0.63%	100.4 ± 0.26%	98 ± 1.1%	100 ± 1.5%	99.34 ± 0.9%	96.2 ± 2.4%
Cc1ccc(NC(=O)c2ccc(CN3CCN(C)CC3)cc2)cc1Nc1nccc(-c2cccnc2)n1 [Imatinib (STI571)]										85.09 ± 0.54%	107 ± 2.1%	99 ± 3.4%	109 ± 3.3%	108 ± 2.7%	95.35 ± 0.94%	94.6 ± 4.2%	97.664 ± 0.066%	101 ± 0.77%	101 ± 2%	94.4 ± 3.7%	96.9 ± 4.7%
O=C(c1ccccc1)c1ccc2n1CCC2C(=O)O (stereo not drawn) [Ketorolac]										102 ± 1.8%	102 ± 4.5%	106 ± 2.7%	109 ± 3.2%	117 ± 4.6%	94.8 ± 7.1%	96.9 ± 1.1%	121 ± 6.7%	128 ± 4%	112 ± 3.3%	98.25 ± 0.73%	108 ± 1.6%
CC(=O)c1c(C)c2cnc(Nc3ccc(N4CCNCC4)cn3)nc2n(C2CCCC2)c1=O										103 ± 1.6%	109.7 ± 0.24%	110 ± 2.1%	109 ± 5%	115 ± 1.2%	79 ± 4.2%	102.3 ± 0.35%	104.8 ± 0.95%	100.9 ± 0.84%	104.4 ± 0.59%	106.6 ± 0.72%	76.7 ± 1.6%
C[C@@H](Oc1cc(-c2cnn(C3CCNCC3)c2)cnc1N)c1c(Cl)ccc(F)c1Cl										105.6 ± 0.81%	97.3 ± 6.2%	104 ± 2.6%	106 ± 1.4%	98 ± 2.9%	10.7 ± 1.4%	99.34 ± 0.12%	102.8 ± 0.57%	102 ± 1.5%	103 ± 1.6%	101.6 ± 0.21%	5.36 ± 0.69%
CC(C)(C)C#Cc1cc(N(C(=O)[C@H]2CC[C@H](C)CC2)[C@H]2CC[C@H](O)CC2)c(C(=O)O)s1 [VX-222]										109 ± 1.1%	117.11 ± 0.037%	111 ± 2%	111 ± 1.3%	103 ± 4.3%	106 ± 4.4%	105.5 ± 0.52%	102.7 ± 0.81%	100 ± 1.2%	99.76 ± 0.98%	104 ± 4.7%	105.42 ± 0.075%
N#CC(=C(/N)Sc1ccccc1N)/C(C#N)=C(\N)Sc1ccccc1N [U0126-EtOH]										105 ± 3.4%	103 ± 1.3%	103 ± 2.5%	103 ± 1.1%	99.47 ± 0.83%	93.3 ± 4.4%	105 ± 2.4%	101 ± 1.1%	99.9 ± 1.5%	101 ± 2%	100.6 ± 0.44%	90.4 ± 1.6%
C#CCN(C)[C@H](C)Cc1ccccc1 [Selegiline HCl]										81.4 ± 7.3%	80.4 ± 9.2%	91.8 ± 7.5%	102 ± 1.1%	95.7 ± 3%	88.1 ± 1.8%	95.9 ± 3.1%	92.55 ± 0.61%	100 ± 1.2%	109 ± 2.5%	102 ± 3.7%	79.5 ± 0.86%
Nc1ccccc1NC(=O)c1ccc(CNC(=O)OCc2cccnc2)cc1 [MS-275]										103 ± 3.7%	109.1 ± 0.37%	96.5 ± 1%	82.7 ± 3.8%	83 ± 2.6%	64.11 ± 0.47%	100.1 ± 0.8%	99.4 ± 1.4%	98.42 ± 0.37%	95.9 ± 1.2%	81.09 ± 0.74%	39.1 ± 0.61%
CO[C@@H]1[C@@H](OC(N)=O)[C@@H](O)[C@H](Oc2ccc3c(O)c(NC(=O)c4ccc(O)c(CC=C(C)C)c4)c(=O)oc3c2C)OC1(C)C [Novobiocin sodium (Albamycin)]										97.5 ± 4.2%	94.9 ± 2.2%	99 ± 4%	112 ± 1.2%	107 ± 6.3%	105 ± 4.1%	104 ± 1.3%	104.4 ± 0.12%	102 ± 3.3%	98.6 ± 2.8%	105 ± 4.4%	98.5 ± 3.8%
Cn1cc(C2=C(c3cn(C4CCN(Cc5ccccn5)CC4)c4ccccc34)C(=O)NC2=O)c2ccccc21 [Enzastaurin]										110 ± 3%	114 ± 1.6%	107 ± 1.7%	104 ± 2.2%	106 ± 4.1%	98.6 ± 6.9%	104.1 ± 0.6%	99.64 ± 0.22%	102 ± 1.3%	99.2 ± 0.55%	102.1 ± 0.61%	95.6 ± 1.9%
